Results taken from patent publication US20240189440A1, “TLR7 AND TLR8 AGONISTS FOR THE TREATMENT OF CANCER AND/OR INFECTIOUS DISEASES” (priority 2021, published 2024).

Key:
[1] = test system: NFκB pathway in Ramos-blue cells; assay: Ramos-Blue NFκB/SEAP reporter assay with cysteine-capped linker-payloads, 72 h (Example 15); assay type: cell-based; conditions: cysteine-capped, 72 hours, SEAP at 630 nm, read-out: Relative Activation; for activation at 5 µM: Linker-Payload Dose 5 uM; for activation at 50 µM: Linker-Payload Dose 50 uM
Procedure: A 50 mM cysteine stock was prepared in 0.1 M PBS pH 7.4. 10 equivalents of 50 mM cysteine were added to 1 equivalent of linker-payload to create a 2.50 mM solution. The reaction was vortexed and sat at room temperature for an hour to allow for the Michael addition to occur. After an hour, an aliquot was taken and run via UPLC-MS to ensure for the complete Michael reaction. The reaction was diluted to 1 mM using 0.1M PBS pH 7.4. The 1 mM solution was diluted to 500 uM and 50 uM in a 96-well plate to afford a final concentration of 50 uM and 5 uM in the cell suspension. The cell density and viability were calculated using the Countess Cell Counter and the proper volume of cells was removed in order to have a seeding density of 0.2×10^6 cells/mL per well. 135 uL of cell suspension was added to each well in a 96-well plate along with 15 uL of the corresponding linker-payload treatment. Each concentration was run in triplicate and incubated at 37° C. with 5% CO2 for 72 hours.
Invivogen's QUANTI-Blue™ solution was prepared by adding 200 uL of QB reagent and 200 uL of QB buffer to 19.6 mL of water. The resulting solution was vortexed and incubated at room temperature for ten minutes. The 96-well plate was centrifuged at 1990 rpm for ten minutes. Then, 40 uL of cell supernatant was added to 160 uL of the prepared QUANTI-Blue™ solution and incubated at 37° C. for 24 hours. The plate was read using the Molecular Devices i3x plate reader at a wavelength of 630 nm to determine the amount of SEAP production.

hepatitis C virus = conditions: treatment of hepatitis C virus; Fidock et al. 2011; cited from earlier work
[2] = test system: HBV infected primary human hepatocytes; conditions: Tsai et al. 2017, Bam et al. 2016; cited from earlier work
[3] = patients with mild allergic asthma; Tsitoura et al. 2015; cited from earlier work

Row | Structure (SMILES) | activation at 5 µM [1] | activation at 50 µM [1] | also measured
1 | CCCCc1nc2c(N)nc3ccccc3c2n1Cc1ccc(CNC(=O)C(CCCNC(N)=O)NC(=O)C(NC(=O)CCCCCN2C(=O)C=CC2=O)C(C)C)cc1 (centres unmarked) [Mc_ValCit_E66, N-(1-(1-(4-((4-amino-2-butyl-1H-imidazo[4,5-c]quinolin-1-yl)methyl)benzylamino)-1-oxo-5-ureidopentan-2-ylamino)-3-methyl-1-oxobutan-2-yl)-6-(2,5-dioxo-2,5-dihydro-1H-pyrrol-1-yl)hexanamide] | 125% | -51.4% | –
2 | CCOCc1nc2c(NC(=O)OCc3ccc(NC(=O)C(CCCNC(N)=O)NC(=O)C(NC(=O)CCCCCN4C(=O)C=CC4=O)C(C)C)cc3)nc3ccccc3c2n1CC(C)(C)O (centres unmarked) [Mc_ValCitPABC_Resiquimod, 4-(2-(2-(6-(2,5-Dioxo-2,5-dihydro-1H-pyrrol-1-yl)hexanamido)-3-methylbutanamido)-5-ureidopentanamido)benzyl 2-(ethoxymethyl)-1-(2-hydroxy-2-methylpropyl)-1H-imidazo[4,5-c]quinolin-4-ylcarbamate] | 18.6% | -20.8% | –
3 | CCc1nc2c(N)nc3ccccc3c2n1CCCCNS(C)(=O)=O [PF-4878691] | – | – | Therapeutic index (hepatitis C virus): low therapeutic index
4 | CCCCOc1nc(N)c2c(n1)N(Cc1cccc(CN3CCCC3)c1)CC(=O)N2 [GS-9620] | – | – | Antiviral activity [2]: no antiviral activity
5 | CCC[C@H](C)Oc1nc(N)c2[nH]c(=O)n(CCCCCN3CCCCC3)c2n1 [GSK-2245035] | – | – | Efficacy on allergen-induced asthmatic response [3]: lack efficacy
6 | CCCCc1nc2c(N)nc3ccccc3c2n1Cc1ccc(NC(=O)OCc2ccc(NC(=O)C(CCCNC(N)=O)NC(=O)C(NC(=O)CCCCCN3C(=O)C=CC3=O)C(C)C)cc2)cc1 (centres unmarked) [Mc_ValCitPABC_E104, 4-(2-(2-(6-(2,5-dioxo-2,5-dihydro-1H-pyrrol-1-yl)hexanamido)-3-methylbutanamido)-5-ureidopentanamido)benzyl 4-((4-amino-2-butyl-1H-imidazo[4,5-c]quinolin-1-yl)methyl)phenylcarbamate] | 12.7% | -19.2% | –
7 | CCCCc1nc2c(N)nc3ccccc3c2n1Cc1ccc(NC(=O)C(CCCNC(N)=O)NC(=O)C(NC(=O)CCCCCN2C(=O)C=CC2=O)C(C)C)cc1 (centres unmarked) [Mc_ValCit_E104, N-(1-(1-(4-((4-amino-2-butyl-1H-imidazo[4,5-c]quinolin-1-yl)methyl)phenylamino)-1-oxo-5-ureidopentan-2-ylamino)-3-methyl-1-oxobutan-2-yl)-6-(2,5-dioxo-2,5-dihydro-1H-pyrrol-1-yl)hexanamide] | 238% | -50.9% | –
